From patent publication US20230146795A1, “ENHANCEMENT OF ANTI-TUMOR ACTIVITY OF SHP2 INHIBITOR PYRIMIDINONE IN COMBINATION WITH NOVEL CANCER MEDICINES IN CANCERS” (TAIHO PHARMACEUTICAL CO., LTD., priority 2020, published 2023)

Assays:
Format in all cases: cell-based
NCI-H358 = assay: Anti-proliferation assay (CellTiter-Glo 2.0), combination index, NCI-H358
Outline: (§1)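 Cells were seeded at 500 cells/well in medium with 10% FBS and exposed to agents at 8 concentrations including 0 nM, for 3 days at 37° C under 5% CO2. Survival was read by CellTiter-Glo 2.0 luminescence, and combination index was determined at each combined concentration.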

MKN45 = assay: Anti-proliferation assay (CellTiter-Glo 2.0), combination index, MKN45; conditions: molar ratio 1:27
Outline: as §1

NCI-H23 = assay: Anti-proliferation assay (CellTiter-Glo 2.0), combination index, NCI-H23
Procedure: (§2) Cell lines were obtained from ATCC or Health Science Research Resources Bank.
Each cell lines were collected by ordinary method, then suspended in indicated medium containing 10% fetal bovine serum in table 3. The number of cells seeded per well was set to 500 cells/20 μL. […] The concentration of each anti-cancer reagents set to 8 concentrations including 0 nM. After adding the medicine to the cells, the cells were further incubated at 37° C. for 3 days under 5% CO2. Cell survival rates were calculated by adding 20 μL of CellTiter-Glo(registered trademark) 2. 0 (Promega) solution to each well, incubating the cells at room temperature for 10 minutes, and then measuring the chemiluminescence intensity of each well using a plate reader (ARVO).
(§3) A combination index (CI) value at each combined concentration of the medicines was determined.

MV-4-11 = assay: Anti-proliferation assay (CellTiter-Glo 2.0), combination index, MV-4-11
Outline: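 Cells were seeded at 500/well in 10% FBS medium and grown 24 h at 37°C before dosing. Compound 1 (10 concentrations) was combined with a second antitumor agent (8 concentrations including 0 nM) for 3 days. Viability was read by CellTiter-Glo 2.0 luminescence, and a combination index was calculated at each concentration pair.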

RMG-I = assay: Anti-proliferation assay (CellTiter-Glo 2.0), combination index, RMG-I
Procedure: as §2
384 well culture plate (781086, Greiner Bio-One International) was used for cell survival rate measurement assay. Each cell lines were collected by ordinary method, then suspended in indicated medium containing 10% fetal bovine serum in table 3. The number of cells seeded per well was set to 500 cells/20 μL. After incubation at 37° C. for 24 hours under 5% CO2, Compound 1 and additional compound having an antitumor effect or a vehicle (DMSO) was added to each well by using D300e Digital Dispenser (Tecan). The concentration of Compound 1 was set to 10 concentrations. The concentration of each anti-cancer reagents set to 8 concentrations including 0 nM. After adding the medicine to the cells, the cells were further incubated at 37° C. for 3 days under 5% CO2. Cell survival rates were calculated by adding 20 μL of CellTiter-Glo(registered trademark) 2. 0 (Promega) solution to each well, incubating the cells at room temperature for 10 minutes, and then measuring the chemiluminescence intensity of each well using a plate reader (ARVO).
as §3

RT4 = assay: Anti-proliferation assay (CellTiter-Glo 2.0), combination index, RT4
Outline: as §1

[1] = Compound 1 13.7 nmol/L + Abemaciclib 41.2 nmol/L, molar ratio 1:3
[2] = Compound 1 41.2 nmol/L + Abemaciclib 123 nmol/L, molar ratio 1:3
[3] = Compound 1 123 nmol/L + Abemaciclib 370 nmol/L, molar ratio 1:3
[4] = Compound 1 370 nmol/L + Abemaciclib 1110 nmol/L, molar ratio 1:3
[5] = Compound 1 1110 nmol/L + Abemaciclib 3330 nmol/L, molar ratio 1:3
[6] = Compound 1 3330 nmol/L + Abemaciclib 10000 nmol/L, molar ratio 1:3
[7] = Compound 1 4.57 nmol/L + Abemaciclib 123 nmol/L
[8] = Compound 1 41.2 nmol/L + Abemaciclib 1110 nmol/L
[9] = Compound 1 123 nmol/L + Abemaciclib 3330 nmol/L
[10] = Compound 1 4.57 nmol/L + Abemaciclib 123 nmol/L, molar ratio 1:27
[11] = Compound 1 13.7 nmol/L + Abemaciclib 370 nmol/L, molar ratio 1:27
[12] = Compound 1 41.2 nmol/L + Abemaciclib 1110 nmol/L, molar ratio 1:27
[13] = Compound 1 123 nmol/L + Abemaciclib 3330 nmol/L, molar ratio 1:27
[14] = combination effect, Compound 1 + Abemaciclib, molar ratio 1:27
[15] = Compound 1 1.52 nmol/L + Abemaciclib 41.2 nmol/L, molar ratio 1:27
[16] = Compound 1 41.2 + combination drug 111 nmol/L (1:2.7)
[17] = Compound 1 123 + combination drug 333 nmol/L (1:2.7)
[18] = Compound 1 370 + combination drug 1000 nmol/L (1:2.7)
[19] = Compound 1 1110 + combination drug 3000 nmol/L (1:2.7)
[20] = Compound 1 4.57 + combination drug 111 nmol/L (1:24)
[21] = Compound 1 13.7 + combination drug 333 nmol/L (1:24)
[22] = Compound 1 41.2 + combination drug 1000 nmol/L (1:24)
[23] = Compound 1 1.52 + combination drug 4.12 nmol/L (1:2.7)
[24] = Compound 1 13.7 + combination drug 37.0 nmol/L (1:2.7)
[25] = Compound 1 13.7 + combination drug 111 nmol/L (1:8.1)
[26] = Compound 1 41.2 + combination drug 333 nmol/L (1:8.1)
[27] = Compound 1 123 + combination drug 1000 nmol/L (1:8.1)

CCN1CCN(Cc2ccc(Nc3ncc(F)c(-c4cc(F)c5nc(C)n(C(C)C)c5c4)n3)nc2)CC1 [Abemaciclib]
CI (NCI-H358; [1]): 0.638 | Fa (NCI-H358; [1]): 0.1857 | CI (NCI-H358; [2]): 0.337 | Fa (NCI-H358; [2]): 0.3529 | CI (NCI-H358; [3]): 0.187 | Fa (NCI-H358; [3]): 0.5769 | CI (NCI-H358; [4]): 0.189 | Fa (NCI-H358; [4]): 0.7183 | CI (NCI-H358; [5]): 0.455 | Fa (NCI-H358; [5]): 0.7441 | CI (NCI-H358; [6]): 0.025 | Fa (NCI-H358; [6]): 0.9724 | CI (MKN45; [7]): 0.665 | Fa (MKN45; [7]): 0.1096 | CI (MKN45; [8]): 0.647 | Fa (MKN45; [8]): 0.5496 | CI (MKN45; [9]): 0.698 | Fa (MKN45; [9]): 0.7785 | Description (MKN45; combination effect, Compound 1 + Abemaciclib): Synergy (0.3-0.7) | CI (NCI-H23; [4]): 0.292 | Fa (NCI-H23; [4]): 0.3181 | CI (NCI-H23; [5]): 0.420 | Fa (NCI-H23; [5]): 0.5212 | CI (NCI-H23; [6]): 0.031 | Fa (NCI-H23; [6]): 0.9964 | CI (MV-4-11; [10]): 0.592 | Fa (MV-4-11; [10]): 0.5416 | CI (MV-4-11; [11]): 0.494 | Fa (MV-4-11; [11]): 0.8419 | CI (MV-4-11; [12]): 0.654 | Fa (MV-4-11; [12]): 0.9407 | CI (MV-4-11; [13]): 0.951 | Fa (MV-4-11; [13]): 0.9781 | Description (MV-4-11; [14]): Synergy (0.3-0.7) | CI (RMG-I; [15]): 0.724 | Fa (RMG-I; [15]): 0.1493 | CI (RMG-I; [10]): 0.606 | Fa (RMG-I; [10]): 0.2479 | CI (RMG-I; [11]): 0.357 | Fa (RMG-I; [11]): 0.4570 | CI (RMG-I; [12]): 0.455 | Fa (RMG-I; [12]): 0.5937 | CI (RMG-I; [13]): 0.830 | Fa (RMG-I; [13]): 0.6711 | Description (RMG-I; [14]): Synergy (0.3-0.7)

COc1cc(N2CCC(N3CCN(C)CC3)CC2)ccc1Nc1ncc(Cl)c(Nc2ccccc2P(C)(C)=O)n1 [Brigatinib]
CI (NCI-H358; [16]): 0.885 | Fa (NCI-H358; [16]): 0.3039 | CI (NCI-H358; [17]): 0.293 | Fa (NCI-H358; [17]): 0.6017 | CI (NCI-H358; [18]): 0.506 | Fa (NCI-H358; [18]): 0.7788 | CI (NCI-H358; [19]): 0.871 | Fa (NCI-H358; [19]): 0.9063 | CI (NCI-H23; [16]): 0.689 | Fa (NCI-H23; [16]): 0.0998 | CI (NCI-H23; [17]): 0.353 | Fa (NCI-H23; [17]): 0.2711 | CI (NCI-H23; [18]): 0.447 | Fa (NCI-H23; [18]): 0.5739 | CI (NCI-H23; [19]): 0.614 | Fa (NCI-H23; [19]): 0.8319 | Description (combinatory effect by CI) (NCI-H23; Compound 1:combination drug molar ratio 1:2.7): Synergy (0.3-0.7) | CI (RT4; [20]): 0.536 | Fa (RT4; [20]): 0.2537 | CI (RT4; [21]): 0.558 | Fa (RT4; [21]): 0.3969 | CI (RT4; [22]): 0.459 | Fa (RT4; [22]): 0.6106 | Description (combinatory effect by CI) (RT4; Compound 1:combination drug molar ratio 1:24): Synergy (0.3-0.7) | CI (MV-4-11; [23]): 0.844 | Fa (MV-4-11; [23]): 0.3537 | CI (MV-4-11; [24]): 0.430 | Fa (MV-4-11; [24]): 0.8161 | CI (MV-4-11; [16]): 0.286 | Fa (MV-4-11; [16]): 0.9418 | CI (MV-4-11; [17]): 0.503 | Fa (MV-4-11; [17]): 0.9637 | CI (MV-4-11; [18]): 0.933 | Fa (MV-4-11; [18]): 0.9768 | CI (MV-4-11; [19]): 0.966 | Fa (MV-4-11; [19]): 0.9918 | CI (RMG-I; [25]): 0.462 | Fa (RMG-I; [25]): 0.2251 | CI (RMG-I; [26]): 0.493 | Fa (RMG-I; [26]): 0.4905 | CI (RMG-I; [27]): 0.963 | Fa (RMG-I; [27]): 0.6133 | Description (combinatory effect by CI) (RMG-I; Compound 1:combination drug molar ratio 1:8.1): Synergy (0.3-0.7)
